# Reference: patent publication US6605639B1, “Ligands of nuclear receptor” (Nuclear Receptor Research, Ltd., priority 1998, dated 2003)
# “Also recorded” adds a separate entry of the source.
# Experiments:
# mouse and rat = assay: Oral administration of ascochlorin to rodents; assay type: in vivo
# Text: These effects make ascochlorin adequate as a remedy for insulin resistance syndrome. In animal experiments, however, the anorexic effect is similar to the effect of enhancing the action of insulin, which makes it highly difficult to evaluate the drug effect as an insulin enhancing agent. Thus, attempts were made to synthesis derivatives having a relatively weak anorexic effect by synthesizing various derivatives through the modification of the molecular structure of ascochlorin.
# white rabbits = assay: Inhibition of arteriosclerosis in white rabbits fed high fat feed; settings: 14 weeks
# Protocol: Thus, a high fat feed was prepared by adding 10% of hardened coconut oil, 2% of cholesterol, 0.5% of bovine bile powder and 0.04% or 0.01% of ascochlorin to a powdery marketed standard white rabbit feed and molded the mixture into pellets. Separately, another high fat feed for the control group was prepared without using ascochlorin.
# Twenty-four white rabbits weighing about 2 kg were divided into 4 groups at random. One of these groups was regarded as the control group, while the remaining 3 groups were respectively regarded as the clofibrate group, the ascochlorin 0.01% group and the ascochlorin 0.04% group at random. Then the experiment was carried out for 14 weeks.
# [1] = tested on: patients suffered from noninsulin dependent diabetes (type II); assay: Phase II clinical test; assay type: in vivo, human; settings: for Fasting blood glucose level, Decrease / Serum total cholesterol level, Decrease / Fasting blood glucose level / Serum total cholesterol level: 360 mg/day; for Fasting blood glucose level / Serum total cholesterol level: n = 30, Mean ± SE; for Boredom No, number of patients / Boredom Yes, number of patients: total 15; for Neuralgia No, number of patients / Neuralgia Yes, number of patients: total 16; for Feebleness No, number of patients / Feebleness Yes, number of patients: total 25
# Protocol: A phase II clinical test of Compound-6 involving 30 patients suffered from noninsulin dependent diabetes (type II) was carried out. Compound-6 was administered in a daily dose of 6 mg/kg (i.e., administration of two tablets weighing 60 mg after each meal). The administration was continued for 12 weeks.
# The facts clarified by this test are as follows.
# The 30 patients with type II diabetes were inquired about thirsty and evaluated in 4 grades, namely, (+++) very strongly thirsty; (++) strongly thirsty; (+) thirsty; and (−) not thirsty. […] The treatment ratio amounted to 100%.
# [2] = tested on: patients suffered from hypercholesterolemia; assay: Phase I clinical test; assay type: in vivo, human; settings: for Serum total cholesterol: Mean ± SE
# Protocol: A phase I clinical test of Compound-6, one of the compounds of the present invention, was carried out with 17 female and male patients aged 40 to 82 suffered from hypercholesterolemia. The experiment was continued for 12 weeks and Compound-6 was administered in the first 8 weeks. […] From the 8th week to the 12th week (the placebo-administration period) a placebo was given without notifying the patients. The drug in a daily dose was divided into 3 portions and taken after meals. Each patient visited the hospital once a week and was subject to investigation and blood collection for analyzing serum.
# [3] = Oral administration of radioisotope-labeled compound: recovery and distribution of radioactivity; assay type: in vivo, rat; settings: once
# Text: The Schiff base formed by the reaction of the compound of the present invention with serum protein is an inactivated compound with a masked biological activity. […] It is still interesting that the radioactive compound incorporated into the adipocyte tissue was free Compound-6 dissolved in oil droplets in cells. It is unknown why the radioactivity is distributed selectively in adipocyte tissue and accumulated with the passage of time. […] Namely, the compound of the present invention is converted into a highly safe Schiff base with the masked biological activity at the step of being absorbed via digestive tract. This Schiff base is adsorbed on the target cell surface layer and incorporated into the cells via endocytosis. Then it is hydrolyzed to regenerate the free Compound-6. The free Compound-6 is dissolved in oil droplets in depot fat. In adipocytes, it is gradually dissolved in cytoplasm and exerts its effect. When depot fat in white adipocyte tissue is transported into other tissues as an energy source, the free Compound-6 is transported together with the fat. That is to say, it also serves as a depot simultaneously. The compound according to the present invention is hardly incorporated into other tissues. […] Different from retinoids, the compounds of the present invention can exert the effects without causing the side effects inherent to retinoids. The reasons are, without doubt, related to kinetics (absorption, transportation, regeneration of activated compound in target cell surface layer, etc.) of the compounds of the present invention, which differ from those of retinoids. […]
# [4] = After 10 weeks, placebo period after 8 weeks of drug (carry-over)
# [5] = After 12 weeks, placebo period after 8 weeks of drug (carry-over)
# Protocol for bovine serum: To recover such a compound in a free state from plasma, it is required to add a large amount of a water-miscible organic solvent (methanol, ethanol, acetone, acetonitrile, etc.) to the plasma, acidify the mixture (pH 3.0 or below) and then allow it to stand at room temperature for about 1 week. […] Ascochlorin, Compound-6 or Compound-14 is dissolved in a small amount of an organic solvent and added to serum.
# At definite points, the serum was sampled and divided into 2 portions. Ten times as much acetonitrile was added to one of these portions and the mixture was centrifuged. Then the free compound in the serum was determined. To the other portion, 10 times as much acetonitrile containing 1% of acetic acid was added. After allowing to stand at room temperature for 1 week, the mixture was centrifuged and the free compound was determined (FIG. 10).
compound,measurement,setting,value
"3-[5-[l(R),2(S),6(S)-trimethyl-3-oxocylohexyl]-3-methyl-2,4-pentadienyl]-2,4-dihydroxy-5-chloro-6-methylbenzaldehyde [Compound-1]",free compound in serum,bovine serum,scarcely detected
same,effects of oral administration,mouse and rat; mouse and rat,"anorexic effect as well as effects of lowering the blood glucose level, the serum lipid level and the serum insulin level"
same,blood pressure,"mouse and rat; oral, anesthetized rats and hypertensive rats",potent effect of lowering blood pressure
same,lesions of obstruction in the coronary artery,white rabbits; 0.01% and 0.04% in high fat feed,significantly alleviated
same,survival until the completion of the experiment,"white rabbits; 0.01% and 0.04% in high fat feed, 6 animals per group",all individuals survived
same,increase in the serum total cholesterol level,white rabbits; high fat feed,would not suppress increase
"COc1c(Cl)c(C)c(C=O)c(O)c1C/C=C(C)/C=C/[C@@]1(C)[C@H](C)CCC(=O)[C@@H]1C [Compound-6, 4-O-methylASC]","Fasting blood glucose level, Decrease",[1]; 4th week,12.37%
same,"Serum total cholesterol level, Decrease",[1]; 4th week,16.6%
same,Fasting blood glucose level,[1]; 4th week,165 ± 4.3 mg/dL
same,Serum total cholesterol level,[1]; 4th week,265 ± 4.4 mg/dL
same,"Boredom No, number of patients",[1]; 4th week,5
same,"Boredom Yes, number of patients",[1]; 4th week,10
same,"Neuralgia No, number of patients",[1]; 4th week,9
same,"Neuralgia Yes, number of patients",[1]; 4th week,7
same,"Feebleness No, number of patients",[1]; 4th week,10
same,"Feebleness Yes, number of patients",[1]; 4th week,15
same,"Fasting blood glucose level, Decrease",[1]; 8th week,15.45%
same,"Serum total cholesterol level, Decrease",[1]; 8th week,24.3%
same,Fasting blood glucose level,[1]; 8th week,159 ± 2.4 mg/dL
same,Serum total cholesterol level,[1]; 8th week,240 ± 4.4 mg/dL
same,"Boredom No, number of patients",[1]; 8th week,13
same,"Boredom Yes, number of patients",[1]; 8th week,2
same,"Neuralgia No, number of patients",[1]; 8th week,10
same,"Neuralgia Yes, number of patients",[1]; 8th week,6
same,"Feebleness No, number of patients",[1]; 8th week,19
same,"Feebleness Yes, number of patients",[1]; 8th week,6
same,"Fasting blood glucose level, Decrease",[1]; 12th week,18.05%
same,"Serum total cholesterol level, Decrease",[1]; 12th week,27.2%
same,Fasting blood glucose level,[1]; 12th week,154 ± 4.4 mg/dL
same,Serum total cholesterol level,[1]; 12th week,231 ± 4.4 mg/dL
same,"Boredom No, number of patients",[1]; 12th week,15
same,"Boredom Yes, number of patients",[1]; 12th week,0
same,"Neuralgia No, number of patients",[1]; 12th week,14
same,"Neuralgia Yes, number of patients",[1]; 12th week,2
same,"Feebleness No, number of patients",[1]; 12th week,24
same,"Feebleness Yes, number of patients",[1]; 12th week,1
same,"thirst, treatment ratio","[1]; 30 patients, 12 weeks",100%
same,"glucose tolerance (50 g of glucose orally loaded, fasting)",[1]; compared with the data before the administration,significantly ameliorated
same,blood pressure of patients with hypertension (7) or borderline hypertension (17),"[1]; human, in vivo",significantly lowered
same,lowering the serum neutral fat level,"[1]; human, in vivo",little effect
same,"urinary glucose, urine collected for 24 hours","[1]; human, in vivo",significantly reduced
same,patients with vertigo,[2]; 17 patients,one
same,"Serum total cholesterol, Decrease","[2]; After 1 week, dose 0.5 (mg.kg)",−20%
same,Serum total cholesterol,"[2]; After 1 week, dose 0.5 (mg.kg), n = 17",273 ± 62.7 mg/dL
same,"Serum total cholesterol, Decrease","[2]; After 2 weeks, dose 1 (mg.kg)",−22%
same,Serum total cholesterol,"[2]; After 2 weeks, dose 1 (mg.kg), n = 17",266 ± 66.7 mg/dL
same,"Serum total cholesterol, Decrease","[2]; After 3 weeks, dose 2 (mg.kg)",−21%
same,Serum total cholesterol,"[2]; After 3 weeks, dose 2 (mg.kg), n = 17",269 ± 66.0 mg/dL
same,"Serum total cholesterol, Decrease","[2]; After 4 weeks, dose 4 (mg.kg)",−28%
same,Serum total cholesterol,"[2]; After 4 weeks, dose 4 (mg.kg), n = 17",254 ± 65.7 mg/dL
same,"Serum total cholesterol, Decrease","[2]; After 6 weeks, dose 8 (mg.kg)",−36%
same,Serum total cholesterol,"[2]; After 6 weeks, dose 8 (mg.kg), n = 17",217 ± 58.8 mg/dL
same,"Serum total cholesterol, Decrease","[2]; After 8 weeks, dose 16 (mg.kg)",−33%
same,Serum total cholesterol,"[2]; After 8 weeks, dose 16 (mg.kg), n = 17",229 ± 61.5 mg/dL
same,"Serum total cholesterol, Decrease",[2]; [4],−25%
same,Serum total cholesterol,[2]; [4],256 ± 57.6 mg/dL
same,"Serum total cholesterol, Decrease",[2]; [5],−22%
same,Serum total cholesterol,[2]; [5],264 ± 57.7 mg/dL
same,"side effects, subjective or objective","[2]; daily dose 1 mg/kg to 16 mg/kg, oral",no serious side effect; also recorded: no subjective or objective side effect
same,"blood glucose levels of 5 diabetics included in the patients, lowered to","[2]; human, in vivo",100 mg/dL
same,systolic and diastolic blood pressure of patients with hypertension or borderline hypertension,"[2]; human, in vivo",lowered
same,radioactivity incorporated into white adipocyte tissue,[3],elevated day by day
same,route of excretion of radioactivity,[3],mostly excreted via feces
same,time after which radioactivity disappeared in most of the organs,[3],3 days
